Experimental data as given in ChEMBL document CHEMBL1201862, “PubChem BioAssay data set” (2004).
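Following 48 hours of exposure in 96-well plates, responses at five concentrations were used to interpolate endpoints linearly. At the GI50, growth is halved.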 Activity calls are given as the source filed them. Rule as the data show it: active = GI50 up to about 1.1 µM and inactive = higher.

Tests used:
Experiment in all cases: growth of human tumour cells (NCI), 48 h
A498 = test system: A498
A549 = test system: A549
BT-549 = test system: BT-549
COLO 205 = test system: COLO 205
EKVX = test system: EKVX
HCT-116 = test system: HCT-116
HCT-15 = test system: HCT-15
HL-60 = test system: HL-60
HOP-62 = test system: HOP-62
HT-29 = test system: HT-29
Hs-578T = test system: Hs-578T
MDA-N = test system: MDA-N
NCI-H522 = test system: NCI-H522
OVCAR-5 = test system: OVCAR-5
PC-3 = test system: PC-3
RXF 393 = test system: RXF 393
SF-268 = test system: SF-268
UACC-257 = test system: UACC-257
UACC-62 = test system: UACC-62

SMILES | GI50 (A498) | GI50 (A549) | GI50 (BT-549) | GI50 (COLO 205) | GI50 (EKVX) | GI50 (HCT-116) | GI50 (HCT-15) | GI50 (HL-60) | GI50 (HOP-62) | GI50 (HT-29) | GI50 (Hs-578T) | GI50 (MDA-N) | GI50 (NCI-H522) | GI50 (OVCAR-5) | GI50 (PC-3) | GI50 (RXF 393) | GI50 (SF-268) | GI50 (UACC-257) | GI50 (UACC-62)
O=[N+]([O-])c1ccc2c(c1)Sc1ccccc1N2CCCCCl | > 100 µM (inactive) | > 100 µM (inactive) | > 100 µM (inactive) | > 100 µM (inactive) | > 100 µM (inactive) | > 100 µM (inactive) | > 100 µM | > 100 µM (inactive) | > 100 µM (inactive) | > 100 µM (inactive) | > 100 µM (inactive) | > 100 µM (inactive) | > 100 µM (inactive) | > 100 µM (inactive) | > 100 µM (inactive) | > 100 µM (inactive) | > 100 µM (inactive) | > 100 µM (inactive) | –
O=C1/C(=C/c2ccco2)N=C(c2ccccc2)N1c1cc2cc(Sc3ccccc3)ccc2[nH]1 | 17 µM (inactive) | > 25 µM (inactive) | 19.4 µM (inactive) | 8.51 µM (inactive) | 15.5 µM (inactive) | > 25 µM (inactive) | > 25 µM | 0.214 µM (active) | – | 20 µM (inactive) | 15.3 µM (inactive) | 7.21 µM (inactive) | 11.6 µM (inactive) | 21.6 µM (inactive) | > 25 µM (inactive) | 13.1 µM (inactive) | > 25 µM (inactive) | – | 21.8 µM (inactive)
COC(=O)c1cc(C)ccc1CC(Cc1ccc(C)cc1)C(=O)OC (stereo not drawn) | 72.6 µM (inactive) | 12.9 µM (inactive) | > 100 µM (inactive) | 14.8 µM (inactive) | 11.1 µM (inactive) | 10.5 µM (inactive) | 10.9 µM | 4.37 µM (inactive) | > 100 µM (inactive) | 5.58 µM (inactive) | 21.2 µM (inactive) | 40.6 µM (inactive) | 7.06 µM (inactive) | 9.86 µM (inactive) | 37.8 µM (inactive) | 2.87 µM (inactive) | 7.52 µM (inactive) | 9.89 µM (inactive) | > 100 µM (inactive)
CC1=C(C(=O)NC(C)(C)C)CC(C(=O)NC(C)(C)C)C(C)N1 (stereo not drawn) | 73.1 µM (inactive) | > 100 µM (inactive) | > 100 µM (inactive) | > 100 µM (inactive) | > 100 µM (inactive) | > 100 µM (inactive) | > 100 µM | > 100 µM (inactive) | > 100 µM (inactive) | > 100 µM (inactive) | > 100 µM (inactive) | > 100 µM (inactive) | > 100 µM (inactive) | > 100 µM (inactive) | > 100 µM (inactive) | > 100 µM (inactive) | > 100 µM (inactive) | > 100 µM (inactive) | > 100 µM (inactive)
CC1C2CC(C(S(=O)(=O)O)C2=O)C1(C)C (stereo not drawn) | > 100 µM (inactive) | – | > 100 µM (inactive) | > 100 µM (inactive) | > 100 µM (inactive) | > 100 µM (inactive) | – | > 100 µM (inactive) | > 100 µM (inactive) | > 100 µM (inactive) | > 100 µM (inactive) | > 100 µM (inactive) | > 100 µM (inactive) | > 100 µM (inactive) | > 100 µM (inactive) | > 100 µM (inactive) | > 100 µM (inactive) | > 100 µM (inactive) | > 100 µM (inactive)
CSc1ncc2c(n1)-c1ccccc1OC2N1CCCC1 (stereo not drawn) | 11.8 µM (inactive) | > 100 µM (inactive) | 75 µM (inactive) | > 100 µM (inactive) | 42.1 µM (inactive) | > 100 µM (inactive) | 49.9 µM | 52.7 µM (inactive) | – | > 100 µM (inactive) | 39.1 µM (inactive) | > 100 µM (inactive) | 36.6 µM (inactive) | > 100 µM (inactive) | 57.3 µM (inactive) | 64.6 µM (inactive) | > 100 µM (inactive) | > 100 µM (inactive) | 26.4 µM (inactive)
O=c1[nH][nH]c(=O)c2c1ccc1oc3ccccc3c12 | > 100 µM (inactive) | > 100 µM (inactive) | > 100 µM (inactive) | > 100 µM (inactive) | 56.2 µM (inactive) | > 100 µM (inactive) | – | > 100 µM (inactive) | > 100 µM (inactive) | > 100 µM (inactive) | > 100 µM (inactive) | > 100 µM (inactive) | > 100 µM (inactive) | > 100 µM (inactive) | > 100 µM (inactive) | > 100 µM (inactive) | > 100 µM (inactive) | > 100 µM (inactive) | > 100 µM (inactive)
Brc1c(C#CCC(c2ccccc2)(c2ccccc2)c2ccccc2)ccc(C#CCC(c2ccccc2)(c2ccccc2)c2ccccc2)c1Br | > 100 µM (inactive) | > 100 µM (inactive) | > 100 µM (inactive) | > 100 µM (inactive) | > 100 µM (inactive) | > 100 µM (inactive) | > 100 µM | > 100 µM (inactive) | – | > 100 µM (inactive) | > 100 µM (inactive) | > 100 µM (inactive) | > 100 µM (inactive) | > 100 µM (inactive) | > 100 µM (inactive) | > 100 µM (inactive) | > 100 µM (inactive) | > 100 µM (inactive) | > 100 µM (inactive)
CC(C)CCn1nc(N)c2nc3ccccc3nc21 | > 100 µM (inactive) | > 100 µM (inactive) | > 100 µM (inactive) | – | > 100 µM (inactive) | 56 µM (inactive) | > 10 µM | 41.6 µM (inactive) | > 100 µM (inactive) | 64.7 µM (inactive) | > 100 µM (inactive) | > 100 µM (inactive) | > 100 µM (inactive) | > 100 µM (inactive) | > 100 µM (inactive) | > 100 µM (inactive) | > 100 µM (inactive) | > 100 µM (inactive) | > 100 µM (inactive)
O=[N+]([O-])/C(Cl)=C(/C(Cl)=C(Cl)Cl)N1CCOCC1 | 3.04 µM (inactive) | 5.73 µM (inactive) | 2.46 µM (inactive) | 2.54 µM (inactive) | 6.53 µM (inactive) | 2.44 µM (inactive) | 1.56 µM | 2.28 µM (inactive) | – | 3.4 µM (inactive) | 3.8 µM (inactive) | 2.32 µM (inactive) | 2 µM (inactive) | 7.93 µM (inactive) | 6.01 µM (inactive) | 2.61 µM (inactive) | 6.41 µM (inactive) | 2.99 µM (inactive) | 1.92 µM (inactive)
COC(=O)/C(C#N)=C(\Nc1ccccc1)N1CCCCC1 | > 100 µM (inactive) | > 100 µM (inactive) | > 100 µM (inactive) | > 100 µM (inactive) | > 100 µM (inactive) | > 100 µM (inactive) | > 100 µM | > 100 µM (inactive) | > 100 µM (inactive) | > 100 µM (inactive) | > 100 µM (inactive) | > 100 µM (inactive) | > 100 µM (inactive) | > 100 µM (inactive) | > 100 µM (inactive) | > 100 µM (inactive) | > 100 µM (inactive) | > 100 µM (inactive) | –
